# In patent US20260130395A1, “Water Dispersible Botanical Compositions” (Aquila Black Limited, priority 2021, published 2026):
# Assay: Stability of cannabinoid compounds and Vitamin E components in Beverage 1 (AB White) by LCMSMS
# Assay type: physicochemical
# Settings: for Stability of Plant-Derived Cannabinoid Compounds in AB White, 8° C.: AB White stored at 8° C.; for Stability of Plant-Derived Cannabinoid Compounds in AB White, 21-25° C.: AB White stored at 21-25° C.
smiles,measurement,setting,value
"C=C(C)[C@@H]1CCC(C)=C[C@H]1c1c(O)cc(CCCCC)c(C(=O)O)c1O [CBDA, cannabidiolic acid]","Stability of Plant-Derived Cannabinoid Compounds in AB White, 8° C.",0 days,1.75 µg/mL
same,"Stability of Plant-Derived Cannabinoid Compounds in AB White, 8° C.",1 days,1.72 µg/mL
same,"Stability of Plant-Derived Cannabinoid Compounds in AB White, 8° C.",2 days,1.76 µg/mL
same,"Stability of Plant-Derived Cannabinoid Compounds in AB White, 8° C.",3 days,1.76 µg/mL
same,"Stability of Plant-Derived Cannabinoid Compounds in AB White, 8° C.",5 days,1.71 µg/mL
same,"Stability of Plant-Derived Cannabinoid Compounds in AB White, 8° C.",8 days,1.75 µg/mL
same,"Stability of Plant-Derived Cannabinoid Compounds in AB White, 8° C.",9 days,1.73 µg/mL
same,"Stability of Plant-Derived Cannabinoid Compounds in AB White, 8° C.",10 days,1.76 µg/mL
same,"Stability of Plant-Derived Cannabinoid Compounds in AB White, 8° C.",11 days,1.70 µg/mL
same,"Stability of Plant-Derived Cannabinoid Compounds in AB White, 8° C.",12 days,1.71 µg/mL
same,"Stability of Plant-Derived Cannabinoid Compounds in AB White, 8° C.",15 days,1.74 µg/mL
same,"Stability of Plant-Derived Cannabinoid Compounds in AB White, 8° C.",16 days,1.73 µg/mL
same,"Stability of Plant-Derived Cannabinoid Compounds in AB White, 8° C.",17 days,1.73 µg/mL
same,"Stability of Plant-Derived Cannabinoid Compounds in AB White, 8° C.",18 days,1.76 µg/mL
same,"Stability of Plant-Derived Cannabinoid Compounds in AB White, 8° C.",19 days,1.74 µg/mL
same,"Stability of Plant-Derived Cannabinoid Compounds in AB White, 8° C.",22 days,1.70 µg/mL
same,"Stability of Plant-Derived Cannabinoid Compounds in AB White, 8° C.",23 days,1.76 µg/mL
same,"Stability of Plant-Derived Cannabinoid Compounds in AB White, 8° C.",24 days,1.72 µg/mL
same,"Stability of Plant-Derived Cannabinoid Compounds in AB White, 8° C.",25 days,1.75 µg/mL
same,"Stability of Plant-Derived Cannabinoid Compounds in AB White, 8° C.",26 days,1.75 µg/mL
same,"Stability of Plant-Derived Cannabinoid Compounds in AB White, 8° C.",29 days,1.75 µg/mL
same,"Stability of Plant-Derived Cannabinoid Compounds in AB White, 8° C.",30 days,1.76 µg/mL
same,"Stability of Plant-Derived Cannabinoid Compounds in AB White, 8° C.",60 days,1.70 µg/mL
same,"Stability of Plant-Derived Cannabinoid Compounds in AB White, 8° C.",90 days,1.70 µg/mL
same,"Stability of Plant-Derived Cannabinoid Compounds in AB White, 8° C.",120 days,1.67 µg/mL
same,"Stability of Plant-Derived Cannabinoid Compounds in AB White, 8° C.",150 days,1.71 µg/mL
same,"Stability of Plant-Derived Cannabinoid Compounds in AB White, 8° C.",180 days,1.75 µg/mL
same,"Stability of Plant-Derived Cannabinoid Compounds in AB White, 8° C.",210 days,1.68 µg/mL
same,"Stability of Plant-Derived Cannabinoid Compounds in AB White, 8° C.",240 days,1.70 µg/mL
same,"Stability of Plant-Derived Cannabinoid Compounds in AB White, 8° C.",270 days,1.70 µg/mL
same,"Stability of Plant-Derived Cannabinoid Compounds in AB White, 8° C.",300 days,1.69 µg/mL
same,"Stability of Plant-Derived Cannabinoid Compounds in AB White, 8° C.",330 days,1.70 µg/mL
same,"Stability of Plant-Derived Cannabinoid Compounds in AB White, 8° C.",360 days,1.70 µg/mL
same,"Stability of Plant-Derived Cannabinoid Compounds in AB White, 8° C.",390 days,1.70 µg/mL
same,"Stability of Plant-Derived Cannabinoid Compounds in AB White, 8° C.",420 days,1.67 µg/mL
same,"Stability of Plant-Derived Cannabinoid Compounds in AB White, 8° C.",450 days,1.68 µg/mL
same,"Stability of Plant-Derived Cannabinoid Compounds in AB White, 8° C.",480 days,1.66 µg/mL
same,"Stability of Plant-Derived Cannabinoid Compounds in AB White, 8° C.",510 days,1.61 µg/mL
same,"Stability of Plant-Derived Cannabinoid Compounds in AB White, 8° C.",540 days,1.61 µg/mL
same,"Stability of Plant-Derived Cannabinoid Compounds in AB White, 8° C.",570 days,1.60 µg/mL
same,"Stability of Plant-Derived Cannabinoid Compounds in AB White, 21-25° C.",0 days,1.75 µg/mL
same,"Stability of Plant-Derived Cannabinoid Compounds in AB White, 21-25° C.",1 days,1.76 µg/mL
same,"Stability of Plant-Derived Cannabinoid Compounds in AB White, 21-25° C.",2 days,1.70 µg/mL
same,"Stability of Plant-Derived Cannabinoid Compounds in AB White, 21-25° C.",3 days,1.71 µg/mL
same,"Stability of Plant-Derived Cannabinoid Compounds in AB White, 21-25° C.",5 days,1.69 µg/mL
same,"Stability of Plant-Derived Cannabinoid Compounds in AB White, 21-25° C.",8 days,1.77 µg/mL
same,"Stability of Plant-Derived Cannabinoid Compounds in AB White, 21-25° C.",9 days,1.74 µg/mL
same,"Stability of Plant-Derived Cannabinoid Compounds in AB White, 21-25° C.",10 days,1.73 µg/mL
same,"Stability of Plant-Derived Cannabinoid Compounds in AB White, 21-25° C.",11 days,1.76 µg/mL
same,"Stability of Plant-Derived Cannabinoid Compounds in AB White, 21-25° C.",12 days,1.74 µg/mL
same,"Stability of Plant-Derived Cannabinoid Compounds in AB White, 21-25° C.",15 days,1.69 µg/mL
same,"Stability of Plant-Derived Cannabinoid Compounds in AB White, 21-25° C.",16 days,1.75 µg/mL
same,"Stability of Plant-Derived Cannabinoid Compounds in AB White, 21-25° C.",17 days,1.72 µg/mL
same,"Stability of Plant-Derived Cannabinoid Compounds in AB White, 21-25° C.",18 days,1.75 µg/mL
same,"Stability of Plant-Derived Cannabinoid Compounds in AB White, 21-25° C.",19 days,1.70 µg/mL
same,"Stability of Plant-Derived Cannabinoid Compounds in AB White, 21-25° C.",22 days,1.70 µg/mL
same,"Stability of Plant-Derived Cannabinoid Compounds in AB White, 21-25° C.",23 days,1.73 µg/mL
same,"Stability of Plant-Derived Cannabinoid Compounds in AB White, 21-25° C.",24 days,1.70 µg/mL
same,"Stability of Plant-Derived Cannabinoid Compounds in AB White, 21-25° C.",25 days,1.73 µg/mL
same,"Stability of Plant-Derived Cannabinoid Compounds in AB White, 21-25° C.",26 days,1.75 µg/mL
same,"Stability of Plant-Derived Cannabinoid Compounds in AB White, 21-25° C.",29 days,1.76 µg/mL
same,"Stability of Plant-Derived Cannabinoid Compounds in AB White, 21-25° C.",30 days,1.71 µg/mL
same,"Stability of Plant-Derived Cannabinoid Compounds in AB White, 21-25° C.",60 days,1.68 µg/mL
same,"Stability of Plant-Derived Cannabinoid Compounds in AB White, 21-25° C.",90 days,1.67 µg/mL
same,"Stability of Plant-Derived Cannabinoid Compounds in AB White, 21-25° C.",120 days,1.66 µg/mL
same,"Stability of Plant-Derived Cannabinoid Compounds in AB White, 21-25° C.",150 days,1.64 µg/mL
same,"Stability of Plant-Derived Cannabinoid Compounds in AB White, 21-25° C.",180 days,1.69 µg/mL
same,"Stability of Plant-Derived Cannabinoid Compounds in AB White, 21-25° C.",210 days,1.73 µg/mL
same,"Stability of Plant-Derived Cannabinoid Compounds in AB White, 21-25° C.",240 days,1.73 µg/mL
same,"Stability of Plant-Derived Cannabinoid Compounds in AB White, 21-25° C.",270 days,1.71 µg/mL
same,"Stability of Plant-Derived Cannabinoid Compounds in AB White, 21-25° C.",300 days,1.73 µg/mL
same,"Stability of Plant-Derived Cannabinoid Compounds in AB White, 21-25° C.",330 days,1.72 µg/mL
same,"Stability of Plant-Derived Cannabinoid Compounds in AB White, 21-25° C.",360 days,1.69 µg/mL
same,"Stability of Plant-Derived Cannabinoid Compounds in AB White, 21-25° C.",390 days,1.67 µg/mL
same,"Stability of Plant-Derived Cannabinoid Compounds in AB White, 21-25° C.",420 days,1.64 µg/mL
same,"Stability of Plant-Derived Cannabinoid Compounds in AB White, 21-25° C.",450 days,1.70 µg/mL
same,"Stability of Plant-Derived Cannabinoid Compounds in AB White, 21-25° C.",480 days,1.63 µg/mL
same,"Stability of Plant-Derived Cannabinoid Compounds in AB White, 21-25° C.",510 days,1.66 µg/mL
same,"Stability of Plant-Derived Cannabinoid Compounds in AB White, 21-25° C.",540 days,1.63 µg/mL
same,"Stability of Plant-Derived Cannabinoid Compounds in AB White, 21-25° C.",570 days,1.61 µg/mL
